This note sets out measurements from US20060142323A1, “Dual binding site acetylcholinesterase inhibitors for the treatment of alzheimer's disease” (priority 2002, published 2006).

Series [1] deals with T1, AChE from bovine erythrocytes (Bos taurus, UniProt P23795).
T1 construct: 0.02 units AChE (Sigma Chemical Co. from bovine erythrocytes); purchased Sigma Chemical Co; host or cells: bovine erythrocytes
T1 sequence (P23795 31-614 isoform P23795-2 limits assumed): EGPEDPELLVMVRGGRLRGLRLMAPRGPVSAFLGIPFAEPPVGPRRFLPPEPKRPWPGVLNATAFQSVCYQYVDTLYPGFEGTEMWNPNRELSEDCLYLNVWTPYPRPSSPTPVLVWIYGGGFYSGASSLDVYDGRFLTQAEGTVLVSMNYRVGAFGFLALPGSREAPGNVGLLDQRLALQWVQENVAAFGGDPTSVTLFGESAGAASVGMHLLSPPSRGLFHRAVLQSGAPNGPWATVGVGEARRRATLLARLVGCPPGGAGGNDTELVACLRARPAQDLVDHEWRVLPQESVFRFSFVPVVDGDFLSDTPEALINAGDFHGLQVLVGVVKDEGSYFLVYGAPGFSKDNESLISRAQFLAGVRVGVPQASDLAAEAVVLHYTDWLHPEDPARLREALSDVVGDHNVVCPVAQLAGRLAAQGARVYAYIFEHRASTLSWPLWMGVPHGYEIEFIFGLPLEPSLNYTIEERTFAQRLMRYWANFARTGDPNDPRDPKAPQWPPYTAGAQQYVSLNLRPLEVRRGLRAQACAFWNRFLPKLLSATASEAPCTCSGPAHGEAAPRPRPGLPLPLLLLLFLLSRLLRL
The experiment in a line: Acetylcholinesterase (AChE) inhibition (from bovine erythrocytes), Ellman method at 30° C., Digiscan 340T. The format is biochemical. The method, then:
Acetylcholinesterase (AChE) Inhibition (from Bovine Erythrocytes)
AChE inhibitory activity was evaluated at 30° C. by the colorimetric method reported by Ellman [Ellman, G. L.; Courtney, K. D.; Andres, B.; Featherstone, R. M. Biochem. Pharmacol. 1961, 7, 88-95]. The assay solution consisted of 0.1 M phosphate buffer pH 8, 0.3 mM 5,5′-dithiobis (2-nitrobenzoic acid) (DTNB, Ellman's reagent), 0.02 units AChE (Sigma Chemical Co. from bovine erythrocytes), and 0.5 mM acetylthiocholine iodide as the substrate of the enzymatic reaction. The compounds tested were added to the assay solution and preincubated with the enzyme for 5 min at 30° C. After that period, the substrate was added. The absorbance changes at 405 nm were recorded for 5 min with a microplate reader Digiscan 340T, the reaction rates were compared, and the percent inhibition due to the presence of test compounds was calculated. The reaction rate was calculated with, at least, triplicate measurements, and the percent inhibition due to the presence of test compound was calculated relative to the compound-free control.

The target in a further series is T2, BuChE from human serum (Homo sapiens, UniProt P06276).
T2 construct: The assay solution consisted of 0.01 units BuChE from human serum; from tissue; host or cells: human serum
The experiment in a line: Butyrylcholinesterase (BuChE) inhibition (from human serum). The format is biochemical. On the procedure: Butyrylcholinetersae (BuChE) Inhibition (from Human Serum)
BuChE inhibitory activity was evaluated at 30° C. by the colorimetric method reported by Ellman (Ellman, G. L.; Courtney, K. D.; Andres, B.; Featherstone, R. M. Biochem. Pharmacol. 1961, 7, 88-95]. The assay solution consisted of 0.01 units BuChE from human serum, 0.1 M sodium phosphate buffer pH 8, 0.3 mM 5,5′-dithiobis (2-nitrobenzoic acid) (DTNB, Ellman's reagent), and 0.5 mM butylthiocholine iodide as the substrate of the enzymatic reaction. Enzyme activity was determined by measuring the absorbance at 405 nm during 5 minutes with a microplate reader Digiscan 340T. The tested compounds were preincubated with the enzyme for 10 minutes at 30° C. The reaction rate was calculated with, at least, triplicate measurements.

In series [2] the test system is human neuroblastoma cell line SH—SY5Y. The experiment in a line: Toxicity measurement (LDH) in SH-SY5Y cells. The class given is cell-based. To be noted: 24 hours exposure. On the procedure:
The cytotoxicity effect of the molecules was tested in the human neuroblastoma cell line SH—SY5Y. These cells were cultured in 96-well plates in minimum essential medium, Han's F12 medium, supplemented with 10% fetal bovine serum, 1% glutamine and 1% penicillin/streptomycin, and grown in. a 5% CO2 humidified incubator at 37° C.
The cells were plated at 10^4 cells for each well, at least, 48 hours before the toxicity measure. Cells were exposed for 24 hours to the compounds at different concentrations (from 10^−5 to 10^−9), quantitative assessment of cell death was made by measurement of the intracellular enzyme lactate dehydrogenase (LDH) (citotoxicity detection kit, Roche). The cuantity of LDH was evaluated in a microplate reader Anthos 2010, at 492 and 620 nm. Controls were taken as 100% viability.

The next series concerns the target AChE peripheral site (Homo sapiens, UniProt P22303). Description: Propidium competition (fluorescence). The class given is binding. To be noted: 20 μM propidium iodide, AChE incubated at least 6 hours with compound. The method, then: Fluorescence was measured in a Fluostar optima plate reader (BMG). Measurements were carried out in 100 μl solution volume, in 96-well plates. The buffer used was 1 mM Tris/HCl, pH 8.0. […] AChE was incubated, at least 6 hours, with the molecules at different concentrations. 20 μM propidium iodide was added 10 min before fluorescence measurement.

The target of a further series is T3, β-amyloid-AChE complex (Homo sapiens, UniProt P22303).
T3 construct: purchased Sigma-Aldrich
The experiment in a line: Inhibition of β-amyloid aggregation (AChE-Aβ complex, Congo Red binding). The format is biochemical. To be noted: propidium iodide 50 μM, Aβ1-40 0.1 mM, Aβ-AChE 200:1, 48 hours. On the procedure:
Inhibition of β-Amyloid Aggregation:
Stock solutions of Aβ1-40 at 3.5 mM were prepared in DMSO. The amount of peptide used in the assays was 0.1 mM. Human recombinant AChE (Sigma-Aldrich) was used at a molar ratio Aβ-AChE 200:1. For the aggregation studies the peptide was mixed with the appropriate amount of AChE in PBS pH 7.4 and stirred for 48 hours in -a microtiter plate at room temperature. The fibrils obtained were characterized by Congo Red (CR) binding.
For the inhibition of β-amyloid aggregation, the compounds tested were used at the IC50 defined in the previous paragraph of the biological evaluation. Propidium iodide 50 μM for comparison.

The target in series [3] is T4, AChE from human erythrocytes (Homo sapiens, UniProt P22303).
T4 construct: 0.02 unit/ml AChE (Sigma Chemical Co. from human erythrocytes); purchased Sigma Chemical Co; host or cells: human erythrocytes
Description: AChE inhibition (from human erythrocytes), Ellman method. The format is biochemical. Conditions: 10 min preincubation at 30° C., 400 μM acetylthiocholine iodide, pH 8. The method, then:
AChE Inhibition (from Human Erythrocytes)
The method of Ellman et al. (Ellman, G. L.; Courtney, K. D.; Andres, B.; Featherstone, R. M. Biochem. Pharmacol. 1961, 7, 88-95) was followed. The assay solution consisted of 0.1 M phosphate buffer pH 8, 200 μM 5,5′-dithiobis(2-nitrobenzoic acid) (DTNB, Ellan's reagent), 0.02 unit/ml AChE (Sigma Chemical Co. from human erythrocytes), and 400 μM acetylthiocholine iodide as the substrate of the enzymatic reaction. The compounds tested were added to the assay solution and pre incubated with the enzyme for 10 min at 30° C. After that period, the substrate was added. The absorbance changes at 412 nm were recorded for 5 min with a Perkin-Elmer 550 SE UV/VIS spectrometer, the reaction rates were compared, and the percent inhibition due to the presence of test compounds was calculated.

[4] abbreviates: bovine erythrocytes AChE, 30° C., 5 min preincubation, read-out: IC50 AchE.
Setting [5] is: human serum BuChE, 30° C., 10 min preincubation, read-out: IC50 BuChE.

Structures are written as SMILES. Read-outs that look alike come from different tables or passages of the source.

T2 sequence (P06276 29-602): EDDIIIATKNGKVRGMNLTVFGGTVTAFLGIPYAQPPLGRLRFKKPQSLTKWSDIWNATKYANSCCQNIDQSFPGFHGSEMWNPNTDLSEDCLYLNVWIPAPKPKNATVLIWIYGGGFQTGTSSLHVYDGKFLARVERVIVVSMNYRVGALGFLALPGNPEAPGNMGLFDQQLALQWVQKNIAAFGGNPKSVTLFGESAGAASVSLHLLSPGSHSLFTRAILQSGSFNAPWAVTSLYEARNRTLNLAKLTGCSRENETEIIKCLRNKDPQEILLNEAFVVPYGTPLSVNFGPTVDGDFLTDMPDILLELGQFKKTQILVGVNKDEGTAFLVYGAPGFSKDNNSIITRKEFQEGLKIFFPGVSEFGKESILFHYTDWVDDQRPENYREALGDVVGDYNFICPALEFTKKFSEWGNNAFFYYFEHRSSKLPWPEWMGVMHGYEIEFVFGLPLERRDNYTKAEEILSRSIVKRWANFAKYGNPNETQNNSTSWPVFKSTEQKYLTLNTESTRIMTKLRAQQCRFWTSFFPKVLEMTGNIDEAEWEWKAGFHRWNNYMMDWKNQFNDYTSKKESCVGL
Chain of AChE peripheral site (P22303 32-614): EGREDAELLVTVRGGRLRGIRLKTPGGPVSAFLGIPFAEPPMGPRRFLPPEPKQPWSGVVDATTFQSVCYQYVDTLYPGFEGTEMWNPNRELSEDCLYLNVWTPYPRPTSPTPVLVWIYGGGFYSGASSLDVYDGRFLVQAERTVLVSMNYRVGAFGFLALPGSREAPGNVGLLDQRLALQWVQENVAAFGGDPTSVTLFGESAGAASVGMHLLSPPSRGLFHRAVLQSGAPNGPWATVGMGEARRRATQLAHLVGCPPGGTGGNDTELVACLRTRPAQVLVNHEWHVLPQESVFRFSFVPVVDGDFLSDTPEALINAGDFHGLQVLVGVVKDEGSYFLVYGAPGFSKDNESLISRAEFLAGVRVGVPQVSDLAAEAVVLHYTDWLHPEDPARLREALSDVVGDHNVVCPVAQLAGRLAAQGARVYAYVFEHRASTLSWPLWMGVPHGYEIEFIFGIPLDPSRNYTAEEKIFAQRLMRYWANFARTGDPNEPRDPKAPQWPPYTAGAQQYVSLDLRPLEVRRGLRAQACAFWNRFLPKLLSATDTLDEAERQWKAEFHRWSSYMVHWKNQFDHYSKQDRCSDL
T4 sequence (P22303 32-617 isoform P22303-2 limits assumed): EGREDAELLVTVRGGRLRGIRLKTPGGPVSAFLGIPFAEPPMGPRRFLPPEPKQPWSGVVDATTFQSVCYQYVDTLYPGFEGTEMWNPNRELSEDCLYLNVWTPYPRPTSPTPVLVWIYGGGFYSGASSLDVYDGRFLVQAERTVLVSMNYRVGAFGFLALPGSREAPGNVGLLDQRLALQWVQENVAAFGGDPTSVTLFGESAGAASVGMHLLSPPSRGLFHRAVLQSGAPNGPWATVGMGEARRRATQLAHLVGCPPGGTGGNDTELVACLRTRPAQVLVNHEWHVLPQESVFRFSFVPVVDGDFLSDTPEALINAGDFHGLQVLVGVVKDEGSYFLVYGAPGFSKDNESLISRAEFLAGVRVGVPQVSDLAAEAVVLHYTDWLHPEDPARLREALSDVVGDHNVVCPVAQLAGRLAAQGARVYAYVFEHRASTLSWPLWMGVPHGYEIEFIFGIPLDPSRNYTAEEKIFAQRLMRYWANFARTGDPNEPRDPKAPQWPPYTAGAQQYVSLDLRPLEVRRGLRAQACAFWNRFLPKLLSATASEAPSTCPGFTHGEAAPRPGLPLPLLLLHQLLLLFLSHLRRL
T3 sequence (P22303 32-614, one chain of several): as the sequence (P22303 32-614) above

Turning to `CN(CCCNC(=O)CN1C(=O)c2ccccc2C1=O)CCCNc1c2c(nc3cc(Cl)ccc13)CCCC2` [Compound 11, N-(3-{[3-(6-Chloro-1,2,3,4-tetrahydro-acridin-9-ylamino)-propyl]-methyl-amino}-propyl)-2-(1,3-dioxo-1,3-dihydro-isoindol-2-yl)-acetamide], the IC50 was 3 nM in series [1] (setting [4]) and 75 nM on BuChE from human serum (setting [5]). Besides, the Toxicity in series [2] was above 100 µM. Besides, the Propidium competition at AChE peripheral site was 10 µM.

`O=C1c2ccccc2C(=O)N1CCCCCCNc1c2ccccc2nc2ccccc12` [Compound 6, 2-[6-(Acridin-9-ylamino)-hexyl]-isoindole-1,3-dione]: the concentration for half-maximal inhibition (IC50) stood at 900 nM in series [1] (setting [4]) and 8 nM on BuChE from human serum (setting [5]). Moreover, the Toxicity in series [2] is above 100 µM. In addition, the Propidium competition at AChE peripheral site stood at 10 µM.

`O=C(CN1C(=O)c2ccccc2C1=O)NCCCCCCCNc1c2c(nc3cc(Cl)ccc13)CCCC2` [Compound 10, N-[7-(6-Chloro-1,2,3,4-tetrahydro-acridin-9-ylamino)-heptyl]-2-(1,3-dioxo-1,3-dihydro-isoindol-2-yl)-acetamide]: the 50% inhibitory concentration (IC50) in series [1] (setting [4]) worked out at 20 nM; at BuChE from human serum (setting [5]), 650 nM. Further, the Toxicity in series [2] is above 100 µM. The Propidium competition at AChE peripheral site came out at 10 µM.

Consider `O=C1c2ccccc2C(=O)N1CCCCCCCNc1c2c(nc3ccccc13)CCCC2` [Compound 4, 2-[7-(1,2,3,4-Tetrahydro-acridin-9-ylamino)-heptyl]-isoindole-1,3-dione], for which the IC50 in series [1] (setting [4]) turned out to be 3000 nM; on BuChE from human serum (setting [5]), 10 nM. The compound further returned a Toxicity in series [2] above 100 µM. The Propidium competition at AChE peripheral site was 10 µM.

With `CC[N+](C)(CC)CCC[n+]1c(-c2ccccc2)c2cc(N)ccc2c2ccc(N)cc21` [propidium, Propidium iodide, reference compound], on β-amyloid-AChE complex, the “reduction of the β-amyloid-AChE complex aggregation” value is 18.1%.

`O=C1c2ccccc2C(=O)N1CCCCCCCCNc1c2c(nc3ccccc13)CCCC2` [Compound 5, 2-[8-(1,2,3,4-Tetrahydro-acridin-9-ylamino)-octyl]-isoindole-1,3-dione]: the half-inhibitory concentration (IC50) was determined as 90 nM in series [1] (setting [4]) and 30 nM at BuChE from human serum (setting [5]). Further, in series [2], the Toxicity turned out to be 5 µM. Also, on AChE peripheral site, the Propidium competition was above 100 µM.

Turning to `O=C1c2ccccc2C(=O)N1CCCCCCCCCNc1c2ccccc2nc2ccccc12` [Compound 9, 2-[9-(Acridin-9-ylamino)-nonyl]-isoindole-1,3-dione], the 50% inhibitory concentration (IC50) in series [1] (setting [4]) was determined as 2 nM; at BuChE from human serum (setting [5]), 90 nM. Further, the Toxicity in series [2] was above 100 µM. Also, the Propidium competition at AChE peripheral site was determined as 1 µM.

In the case of `O=C(CN1C(=O)c2ccccc2C1=O)NCCCCCCNc1c2c(nc3cc(Cl)ccc13)CCCC2` [Compound 12, N-[6-(6-Chloro-1,2,3,4-tetrahydro-acridin-9-ylamino)-hexyl]-2-(1,3-dioxo-1,3-dihydro-isoindol-2-yl)-acetamide], the half-maximal inhibitory concentration (IC50) was determined as 10 nM in series [1] (setting [4]) and 200 nM at BuChE from human serum (setting [5]). Besides, the Toxicity in series [2] is above 100 µM. Further, at AChE peripheral site, the Propidium competition is 100 µM.

On to `CCn1c(=NCCCCCCNc2c3c(nc4ccccc24)CCCC3)sn(C(C)C)c1=O` [Compound 18, 4-Ethyl-2-isopropyl-5-[6-(1,2,3,4-tetrahydro-acridin-9-ylamino)-hexyl-imino]-[1,2,4]thiadiazolidin-3-one], for which the values for the concentration for half-maximal inhibition (IC50) (in series [1]; at BuChE from human serum) were 2250 nM and 1000 nM, respectively. The compound further had a Toxicity in series [2] above 10 µM. In addition, the Propidium competition on AChE peripheral site was above 100 µM.

For the compound `O=C1c2ccccc2C(=O)N1CCCCCCCCNc1c2ccccc2nc2ccccc12` [Compound 8, 2-[8-(Acridin-9-ylamino)-octyl]-isoindole-1,3-dione], the IC50 (in series [1] (setting [4]); on BuChE from human serum (setting [5])) was 1000 nM throughout. This compound had a Toxicity in series [2] of 100 µM. On AChE peripheral site, the Propidium competition was above 100 µM.

In the case of `Clc1ccc2c(NCCCCCCCCNc3c4ccccc4nc4ccccc34)c3c(nc2c1)CCCC3` [Compound 24, N-Acridin-9-yl-N′-(6-chloro-1,2,3,4-tetrahydro-acridin-9-yl)-octane-1,8-diamine], the 50% inhibitory concentration (IC50) in series [1] (setting [4]) stood at 1 nM; at BuChE from human serum (setting [5]), 35 nM. The compound further returned a Toxicity in series [2] of 5 µM. Moreover, the Propidium competition on AChE peripheral site stood at 10 µM.

Consider `CCn1c(=NCCCCCCCCNc2c3c(nc4ccccc24)CCCC3)sn(C(C)C)c1=O` [Compound 17, 4-Ethyl-2-isopropyl-5-[8-(1,2,3,4-tetrahydro-acridin-9-ylamino)-octylimino]-[1,2,4]thiadiazolidin-3-one], for which the IC50 came to 200 nM in series [1] (setting [4]) and 10 nM on BuChE from human serum (setting [5]). This compound registered a Toxicity in series [2] above 100 µM. The Propidium competition at AChE peripheral site is 0.1 µM.

As to `COc1cc2c(cc1OC)C(=O)C(CNCCCCCCNc1c3c(nc4ccccc14)CCCC3)C2` (centres unmarked) [Compound 2, 5,6-Dimethoxy-2-{[6-(1,2,3,4-tetrahydro-acridin-9-ylamino)-hexylamino]-methyl}-indan-1-one], inhibition in series [3] was half-maximal at 100 nM (IC50).

For `CN(CCCNc1c2c(nc3cc(Cl)ccc13)CCCC2)CCCNc1c2c(nc3cc(Cl)ccc13)CCCC2` [Compound 19], the IC50 in series [1] (setting [4]) turned out to be 0.1 nM; at BuChE from human serum (setting [5]) it was 1.5 nM. This compound also showed a Toxicity in series [2] of 10 µM. In addition, the Propidium competition at AChE peripheral site amounted to 10 µM.
